The source of these data is patent US7041461B2 (H. Lundbeck A/S, priority 1998, dated 2006).

Assay type in all cases: cell-based
In one assay the target is T1, NPFF-1 receptor (Rattus norvegicus, UniProt Q9EP86).
T1 construct: expressed in transfected cells; host or cells: Cos-7 cells, transient, intact cells
The assay can be described thus: Total inositol phosphate release in transiently transfected Cos-7 cells.

Another assay addresses T2, SNORF2 (NPFF1) (Rattus norvegicus, UniProt Q9EP86).
T2 construct: from linearized plasmids or PCR products containing the complete coding region of the genes; expressed in transfected cells; host or cells: Xenopus laevis oocytes injected with synthetic RNA
As to the kind of experiment: Voltage-clamp electrophysiology in Xenopus oocytes expressing SNORF2 (NPFF1) and chimeric Gαq/z. The settings on record: oocytes with SNORF2 and Gαq/z; for inward current response: 1 μM, holding potential −80 mV. On the procedure: (§1) Oocytes were harvested from Xenopus laevis and injected with mRNA transcripts as previously described (Quick and Lester, 1994; Smith et al., 1997). […] Three to eight hours prior to recording, oocytes were injected with 500 pg Gαq/z mRNA in order to observe coupling to Ca^++ activated Cl^− currents. Dual electrode voltage clamp (Axon Instruments Inc.) was performed using 3 M KCl-filled glass microelectrodes having resistances of 1–2 Mohm. Unless otherwise specified, oocytes were voltage clamped at a holding potential of −80 mV. During recordings, oocytes were bathed in continuously flowing (1–3 ml/min) medium containing 96 mM NaCl, 2 mM KCl, 1.8 mM CaCl2, 1 mM MgCl2, and 5 mM HEPES, pH 7.5 (ND96). Drugs were applied either by local perfusion from a […] glass capillary tube fixed at a distance of 0.5 mm from the oocyte, or by switching from a series of gravity fed perfusion lines.
Heterologous expression of GPCRs in Xenopus oocytes has been widely used to determine the identity of signaling pathways activated by agonist stimulation (Gundersen et al., 1983; Takahashi et al., 1987). Activation of the phospholipase C (PLC) pathway is assayed by applying test compound in ND96 solution to oocytes previously injected with mRNA for the mammalian receptor and observing inward currents at a holding potential of −80 mV. The appearance of currents that reverse at −25 mV and display other properties of the Ca^++-activated Cl^− (chloride) channel is indicative of mammalian receptor-activation of PLC and release of IP3 and intracellular Ca^++.
Control oocytes receiving only G-protein synthetic RNA were unresponsive to these peptides. […] Similarly, SNORF2-like was renamed NPFF-like.

The target of a further assay is T3, NPFF1 (SN2) (Rattus norvegicus, UniProt Q9EP86).
T3 construct: expressed in transfected cells; host or cells: CHO (CHO-K1) cells, transient
T3 sequence (Q9EP86 whole entry): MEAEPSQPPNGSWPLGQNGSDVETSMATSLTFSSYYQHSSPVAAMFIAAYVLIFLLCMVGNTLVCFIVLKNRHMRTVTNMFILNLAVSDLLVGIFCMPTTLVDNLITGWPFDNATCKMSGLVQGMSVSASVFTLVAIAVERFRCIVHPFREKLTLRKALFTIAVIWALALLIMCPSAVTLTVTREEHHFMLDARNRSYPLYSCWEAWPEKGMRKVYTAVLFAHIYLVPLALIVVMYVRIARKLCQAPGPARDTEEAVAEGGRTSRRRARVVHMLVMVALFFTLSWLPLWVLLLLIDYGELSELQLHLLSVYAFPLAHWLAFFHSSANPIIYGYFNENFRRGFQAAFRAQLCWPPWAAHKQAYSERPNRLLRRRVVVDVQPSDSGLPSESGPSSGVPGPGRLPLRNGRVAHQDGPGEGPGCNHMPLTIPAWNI
As to the kind of experiment: Microphysiometric measurement of extracellular acidification rate in transiently transfected CHO cells. The conditions noted are these: CHO cells transfected with NPFF1 alone; read-out: EC50, increase in extracellular acidification rate. An excerpt: Microphysiometric response of CHO cells transiently transfected with either NPFF1 (SN2) alone or NPFF1 accompanied by Gq/Gz. […] In both FIGS. 17A and 17B control cells mock transfected with empty vector produced little if any response to drug even at the highest concentrations used. Responses are reported as percentage increase in the acidification rate as observed just prior to drug challenge (immediate prior basal rate).
General guidelines for transient receptor expression, cell preparation and microphysiometric recording are described elsewhere (Salon, J. A. and Owicki, J. A., 1996). Receptors and/or control vectors are transiently expressed in CHO-K1 cells, by liposome mediated transfection according to the manufacturers recommendations (Lipof ectAMINE, GibcoBRL, Gaithersburg, Md.), and maintained in Ham's F-12 complete (10% serum). […]
A standard recording protocol specifies a 100 μl/min flow rate, with a 2 min total pump cycle which includes a 30 sec flow interrruption during which the acidification rate measurement is taken. […] Ligand samples are then washed out and the acidification rates reported are expressed as a percentage increase of the peak response over the baseline rate observed just prior to challenge. […]

The next assay concerns the target T4, NPFF2 (hNPFF2) (Homo sapiens, UniProt Q9Y5X5).
T4 construct: BO89, was determined to be a full length clone with no point mutations; expressed in transfected cells; host or cells: Xenopus laevis oocytes injected with synthetic mRNA
The assay can be described thus: Voltage-clamp electrophysiology in Xenopus oocytes expressing NPFF2 (NPFF-like) and chimeric Gαq/z. The settings on record: 1 μM; oocytes with NPFF2 (NPFF-like) mRNA and Gαq/z; −80 mV. On the procedure:
Electrophysiological responses in voltage-clamped oocytes expressing NPFF2 mRNA. […] Oocytes were clamped at a holding potential of −80 mV.
For expression of NPFF2, mRNA transcripts were generated as described for NPFF1, using PCR products from ligation reactions or linearized DNA from B089 as DNA templates. Oocytes were injected with 5–50 ng NPFF2 mRNA and incubated as previously described.
as §1

T2 sequence (Q9EP86 whole entry): as above
T1 sequence (Q9EP86 whole entry): as above
T4 sequence (Q9Y5X5 103-522): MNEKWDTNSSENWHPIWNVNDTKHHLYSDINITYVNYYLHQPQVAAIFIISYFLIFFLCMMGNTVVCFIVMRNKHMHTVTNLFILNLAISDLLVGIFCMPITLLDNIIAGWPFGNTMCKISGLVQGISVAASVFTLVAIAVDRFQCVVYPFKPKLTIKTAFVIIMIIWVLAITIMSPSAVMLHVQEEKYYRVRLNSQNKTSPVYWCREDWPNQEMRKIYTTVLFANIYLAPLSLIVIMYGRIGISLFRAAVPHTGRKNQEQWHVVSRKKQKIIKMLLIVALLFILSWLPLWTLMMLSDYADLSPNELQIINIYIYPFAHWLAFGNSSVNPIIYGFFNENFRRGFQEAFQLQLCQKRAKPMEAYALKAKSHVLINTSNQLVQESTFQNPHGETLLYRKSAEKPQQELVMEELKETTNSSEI

`CC(C)C[C@H](NC(=O)[C@@H](N)Cc1ccccc1)C(=O)N[C@@H](Cc1ccccc1)C(=O)N[C@@H](CCC(N)=O)C(=O)N1CCC[C@H]1C(=O)N[C@@H](CCC(N)=O)C(=O)N[C@@H](CCCNC(=N)N)C(=O)N[C@@H](Cc1ccccc1)C(N)=O` [NPFF(F-8-Fa)]: the “Emax, total IP release” value was “approximately 200 % basal” at NPFF-1 receptor (Cos-7 cells transfected with NPFF1 alone); “approximately 1500 % basal” at NPFF-1 receptor (Cos-7 cells transfected with NPFF1 receptor and Gq/Gz chimera). For the same compound, the inward current response result on SNORF2 (NPFF1) is “robust inward currents”. On SNORF2 (NPFF1), the “threshold for activation of inward current” value is given as 30 nM.
For the compound H-AGEGLSSPFWSLAAPQRF-NH2 [A18Fa], the EC50 at NPFF1 (SN2) turned out to be 0.15 µM. The inward current response entry at SNORF2 (NPFF1) was “robust inward currents”; at NPFF2 (hNPFF2) it was “activated similar inward currents”.
